Test results taken from ChEMBL document CHEMBL4732179, “Design, synthesis, and bioassay of 4-thiazolinone derivatives as influenza neuraminidase inhibitors” (Eur J Med Chem, 2021).

tested on: not listed separately; experiment: Inhibition of Influenza A virus A/Puerto Rico/8/1934(H1N1) neuraminidase using MUNANA as substrate measured after 60 mins by fluorescence assay; details: not given

| Compound | IC50 |
| --- | --- |
| COc1cc(/C=C2\S/C(=N/c3nc(C(C)C)c(C(C)=O)s3)NC2=O)ccc1O | 23 µM |
| COc1cccc(/C=C2\S/C(=N/c3nc(C(C)(C)C)c([N+](=O)[O-])s3)NC2=O)c1O | 55 µM |
| CCOC(=O)Cc1csc(/N=C2\NC(=O)/C(=C/c3ccc(O)c(OC)c3)S2)n1 | 28 µM |
| CCOC(=O)c1sc(/N=C2\NC(=O)/C(=C/c3ccc(NC(C)=O)cc3)S2)nc1C | 44.1 µM |
| CCOC(=O)c1sc(/N=C2\NC(=O)/C(=C/c3cccc(F)c3)S2)nc1C | 64.4 µM |
| COc1cc(/C=C2\S/C(=N/c3nc(C)c(C(C)=O)s3)NC2=O)ccc1O | 26.1 µM |
| CCOC(=O)c1sc(/N=C2\NC(=O)/C(=C/c3ccc(C(=O)O)cc3)S2)nc1C | 36.5 µM |
| CCOC(=O)c1sc(/N=C2\NC(=O)CS2)nc1C | 58.8 µM |
| CCOC(=O)c1sc(/N=C2\NC(=O)/C(=C/c3ccccc3O)S2)nc1C | 28.8 µM |
| CCOC(=O)c1sc(/N=C2\NC(=O)/C(=C/c3cccc(OC)c3O)S2)nc1C | 19.2 µM |
| CCOC(=O)Cc1csc(/N=C2\NC(=O)/C(=C/c3ccc(O)cc3)S2)n1 | 27.7 µM |
| COC(=O)c1sc(/N=C2\NC(=O)/C(=C/c3ccc(O)c(OC)c3)S2)nc1C | 30.4 µM |
| CC(C)(C)c1nc(/N=C2\NC(=O)CS2)sc1[N+](=O)[O-] | 41.6 µM |
| COc1cccc(/C=C2\S/C(=N/c3nc(C(C)C)c(C(C)=O)s3)NC2=O)c1O | 28.9 µM |
| CC(C)(C)c1nc(/N=C2\NC(=O)/C(=C/c3ccc(O)cc3)S2)sc1[N+](=O)[O-] | 38.8 µM |
| COc1cc(/C=C2\S/C(=N/c3nc(C(C)(C)C)c([N+](=O)[O-])s3)NC2=O)ccc1O | 35.2 µM |
| CCOC(=O)Cc1csc(/N=C2\NC(=O)/C(=C/c3cccc([N+](=O)[O-])c3)S2)n1 | 46 µM |

tested on: not listed separately; experiment: Inhibition of H1N1 influenza virus neuraminidase using MUNANA as substrate measured after 60 mins by fluorescence assay; set-up: species or system H1N1 subtype; details: not given

| Compound | IC50 |
| --- | --- |
| CCOC(=O)C1=C(C)N=C(NC(C)=O)SC1c1ccccc1OCC (centres undefined) | 80.1 µM |

tested on: Influenza A virus (A/Puerto Rico/8/1934(H1N1)); experiment: Inhibition of Influenza A virus A/Puerto Rico/8/1934(H1N1) neuraminidase at 40 ug/ml using MUNANA as substrate measured after 60 mins by fluorescence assay relative to control; details: dose 40.0 µg/ml

| Compound | inhibition |
| --- | --- |
| CCOC(=O)c1sc(/N=C2\NC(=O)/C(=C/c3ccc4c(c3)OCO4)S2)nc1C | 45% |
| CC(C)(C)c1nc(/N=C2\NC(=O)CS2)sc1-n1cncn1 | 18.8% |
| CC(C)(C)c1nc(/N=C2\NC(=O)/C(=C/c3ccc([N+](=O)[O-])cc3)S2)sc1[N+](=O)[O-] | 46.1% |
| CCOC(=O)c1sc(/N=C2\NC(=O)/C(=C/c3cccc(C)c3)S2)nc1C | 35.4% |
| CCOC(=O)c1sc(/N=C2\NC(=O)C(C)S2)nc1C (centres undefined) | 19.6% |
| CC(=O)c1sc(/N=C2\NC(=O)/C(=C/c3cccc(N)c3)S2)nc1C | 24.3% |
| CCOC(=O)c1sc(/N=C2\NC(=O)C[Se]2)nc1C | 17.9% |
| CCOC(=O)c1sc(NC(=N)N)nc1C | -1.32% |
| CCCc1nc(/N=C2\NC(=O)CS2)sc1C(=O)OC | 37% |
| CCOC(=O)c1sc(NC(=S)NC(=O)/C=C/c2ccccc2)nc1C | 23.6% |
| COc1cc(/C=C2\S/C(=N/c3nc(C(C)C)c(C(C)=O)s3)NC2=O)ccc1O | 97.9% |
| CCOC(=O)c1sc(/N=C2\NC(=O)/C(=C/c3cccc([N+](=O)[O-])c3)S2)nc1C | 43.5% |
| COc1cccc(/C=C2\S/C(=N/c3nc(C(C)(C)C)c([N+](=O)[O-])s3)NC2=O)c1O | 57.3% |
| CC(C)(C)c1nc(/N=C2\NC(=O)/C(=C/c3cccc(Cl)c3)S2)sc1[N+](=O)[O-] | 45.9% |
| CCOC(=O)Cc1csc(/N=C2\NC(=O)/C(=C/c3ccc(O)c(OC)c3)S2)n1 | 86.2% |
| CCOC(=O)c1sc(/N=C2\NC(=O)/C(=C/c3ccc(NC(C)=O)cc3)S2)nc1C | 77.8% |
| CCOC(=O)c1sc(/N=C2\NC(=O)/C(=C/c3ccccc3C(=O)O)S2)nc1C | 47% |
| CCOC(=O)c1sc(/N=C2\NC(=O)/C(=C/c3cccc(F)c3)S2)nc1C | 54.5% |

| Compound | inhibition |
| --- | --- |
| CC(C)(C)c1csc(/N=C2\NC(=O)CS2)n1 | 38% |
| CCOC(=O)c1oc(/N=C2\NC(=O)CS2)nc1C | 34.8% |
| COc1cc(/C=C2\S/C(=N/c3nc(C)c(C(C)=O)s3)NC2=O)ccc1O | 100% |
| CCOC(=O)c1sc(/N=C2\NC(=O)/C(=C/c3ccc(C(=O)O)cc3)S2)nc1C | 79.1% |
| CCOC(=O)c1sc(/N=C2\NC(=O)CS2)nc1C | 78.4% |
| CCOC(=O)c1sc(/N=C2\NC(=O)CS2)nc1C(F)(F)F | 37% |
| CCOC(=O)c1sc(/N=C2\NC(=O)/C(=C/c3ccccc3O)S2)nc1C | 91.3% |
| CCOC(=O)c1sc(/N=C2\NC(=O)/C(=C/c3cccc(OC)c3O)S2)nc1C | 91.2% |
| CC(C)(C)c1nc(/N=C2\NC(=O)CS2)sc1-n1ccnc1 | 36.8% |
| CCOC(=O)Cc1csc(/N=C2\NC(=O)/C(=C/c3ccc(O)cc3)S2)n1 | 93.9% |
| COC(=O)c1sc(/N=C2\NC(=O)/C(=C/c3ccc(O)c(OC)c3)S2)nc1C | 88.2% |
| CCOC(=O)Cc1nc(/N=C2\NC(=O)CS2)sc1C | 43.8% |
| CCOC(=O)Cc1csc(/N=C2\NC(=O)CS2)n1 | 26.4% |
| CC(C)(C)c1nc(/N=C2\NC(=O)CS2)sc1[N+](=O)[O-] | 77.8% |
| COc1cccc(/C=C2\S/C(=N/c3nc(C(C)C)c(C(C)=O)s3)NC2=O)c1O | 98.5% |
| CC(C)(C)c1nc(/N=C2\NC(=O)/C(=C/c3ccc(O)cc3)S2)sc1[N+](=O)[O-] | 78.3% |
| COc1cc(/C=C2\S/C(=N/c3nc(C(C)(C)C)c([N+](=O)[O-])s3)NC2=O)ccc1O | 77.1% |
| CCOC(=O)Cc1csc(/N=C2\NC(=O)/C(=C/c3cccc([N+](=O)[O-])c3)S2)n1 | 51.2% |
